Laboratory results published in US9073876B2, “Flap modulators” (JANSSEN PHARMACEUTICA NV, priority 2013, dated 2015).
Where a name gives a salt, the structure may show the parent alone.

How the values were obtained:
[1] = test system: leukotriene pathway in human whole blood (LTB4 levels); assay: Human whole blood assay (LTB4); type: cell-based; settings: human whole blood diluted 1:1 in RPMI, stimulated with calcium ionophore A23187; single replicate
Outline: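 Compounds are pre-incubated 15 min at 37° Celsius in RPMI-diluted (1:1) heparinised whole blood before a 30 min A23187 stimulus (7 μg/mL). Plasma LTB4 is read by immunoassay kit, with IC50 calculated from a 4-parameter equation.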

[2] = target: human FLAP (Homo sapiens (Human), UniProt P20292); assay: FLAP binding assay (HTRF); settings: human FLAP-containing membranes, HTRF format; average of two assay plates, duplicates; read-out: FLAP Binding wild type HTRF Ki
human FLAP, sequence (P20292 whole entry): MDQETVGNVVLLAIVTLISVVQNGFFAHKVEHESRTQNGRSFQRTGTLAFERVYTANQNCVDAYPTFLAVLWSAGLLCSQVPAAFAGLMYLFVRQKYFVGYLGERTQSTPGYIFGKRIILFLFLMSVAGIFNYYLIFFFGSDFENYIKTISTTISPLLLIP
Outline: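 HTRF ratio read-out; two independent plates, samples in duplicate on each, values averaged across plates.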

Question: What does the source list for Cc1cc(Oc2c(C3CCC3)ccc(-c3cnc(N)cn3)c2F)nc(N(C)C)n1 [Example 236, 4-(3-(5-Aminopyrazin-2-yl)-6-cyclobutyl-2-fluorophenoxy)-N,N,6-trimethylpyrimidin-2-amine]?
Answer: IC50 [1]: 37.1 nM; Ki [2]: 2.2 nM

Question: With CN(C)c1cc(Oc2c(C3CCC3)ccc(-c3cnc(N)cn3)c2F)ncn1 [Example 237, 6-(3-(5-Aminopyrazin-2-yl)-6-cyclobutyl-2-fluorophenoxy)-N,N-dimethylpyrimidin-4-amine] as the molecule, how does the IC50 [1] read?
Answer: Its IC50 is 84.7 nM.

Question: What about the Ki [2] of the same molecule?
Answer: The Ki was 3.3 nM.

Question: What does the source list for CCOC(=O)c1c(C(F)(F)F)nn(C)c1Oc1c(C2CCC2)ccc(-c2cnc(N)cn2)c1F [Example 238, Ethyl 5-(3-(5-aminopyrazin-2-yl)-6-cyclobutyl-2-fluorophenoxy)-1-methyl-3-(trifluoromethyl)-1H-pyrazole-4-carboxylate]?
Answer: IC50 [1]: 571 nM; Ki [2]: 155 nM

Question: Which results are given for CS(=O)(=O)c1ccc(Oc2c(C3CCC3)ccc(-c3cnc(N)cn3)c2F)nc1 [Example 239, 5-(4-cyclobutyl-2-fluoro-3-((5-(methylsulfonyl)pyridin-2-yl)oxy)phenyl)pyrazin-2-amine]?
Answer: IC50 [1]: 197 nM; Ki [2]: 8.3 nM

Question: With CC(C)(C)c1cc(Oc2c(C3CCC3)ccc(-c3cnc(N)cn3)c2F)nc(N)n1 [Example 240, 4-(3-(5-aminopyrazin-2-yl)-6-cyclobutyl-2-fluorophenoxy)-6-(tert-butyl)pyrimidin-2-amine] as the molecule, how does the IC50 [1] read?
Answer: Its IC50 is 104 nM.

Question: And the Ki [2]?
Answer: The Ki was 23.6 nM.

Question: Which results are given for Nc1cnc(-c2ccc(C3CCC3)c(Oc3nccc(N4CCC5(CC4)OCCCO5)n3)c2F)cn1 [Example 241, 5-(3-((4-(1,5-dioxa-9-azaspiro[5.5]undecan-9-yl)pyrimidin-2-yl)oxy)-4-cyclobutyl-2-fluorophenyl)pyrazin-2-amine]?
Answer: IC50 [1]: 20.7 nM; Ki [2]: 1.2 nM

Question: What does the source list for CC(C)Cc1cc(Oc2c(C3CCC3)ccc(-c3cnc(N)cn3)c2F)nc(N)n1 [Example 242, 4-(3-(5-aminopyrazin-2-yl)-6-cyclobutyl-2-fluorophenoxy)-6-isobutylpyrimidin-2-amine]?
Answer: IC50 [1]: 30 nM; Ki [2]: 3.6 nM

Question: CS(=O)(=O)NCCOc1c(C2CCC2)ccc(-c2cnc(N)cn2)c1F [Example 243, N-(2-(3-(5-Aminopyrazin-2-yl)-6-cyclobutyl-2-fluorophenoxy)-ethyl)-methane-sulfonamide] was tested. Which IC50 [1] did it give?
Answer: The IC50 was 859 nM.

Question: And the Ki [2]?
Answer: Its Ki is 236 nM.

Question: What does the source list for Nc1cnc(-c2ccc(C3CCC3)c(OCCN3CCOCC3)c2F)cn1 [Example 244, 5-(4-Cyclobutyl-2-fluoro-3-(2-morpholinoethoxy)phenyl)pyrazin-2-amine]?
Answer: IC50 [1]: 1820 nM; Ki [2]: 462 nM

Question: Which results are given for CCOC(=O)CCCOc1c(C2CCC2)ccc(-c2cnc(N)cn2)c1F [Example 245, Ethyl 4-(3-(5-aminopyrazin-2-yl)-6-cyclobutyl-2-fluorophenoxy)butanoate]?
Answer: IC50 [1]: 2800 nM; Ki [2]: 62.2 nM

Question: Which results are given for CC(C)(C)OC(=O)N1CC(COc2c(C3CCC3)ccc(-c3cnc(N)cn3)c2F)C1 [Example 246, tert-butyl-3-((3-(5-aminopyrazin-2-yl)-6-cyclobutyl-2-fluorophenoxy)-methyl)azetidine-1-carboxylate]?
Answer: IC50 [1]: 1590 nM; Ki [2]: 98.6 nM

Question: Which IC50 [1] does the source give for CC(C)(C)OC(=O)N1CCCC1COc1c(C2CCC2)ccc(-c2cnc(N)cn2)c1F (stereo not shown) [Example 248, tert-butyl 2-((3-(5-aminopyrazin-2-yl)-6-cyclobutyl-2-fluorophenoxy)methyl)pyrrolidine-1-carboxylate] here?
Answer: Its IC50 is 10000 nM.

Question: And the Ki [2]?
Answer: Its Ki is 261 nM.

Question: With CC(C)(C)OC(=O)N1CCCC(COc2c(C3CCC3)ccc(-c3cnc(N)cn3)c2F)C1 (stereo not shown) [Example 249, tert-Butyl 3-((3-(5-aminopyrazin-2-yl)-6-cyclobutyl-2-fluorophenoxy)methyl)piperidine-1-carboxylate] as the molecule, how does the IC50 [1] read?
Answer: The IC50 was 1260 nM.

Question: What about the Ki [2] of the same molecule?
Answer: The Ki was 208 nM.

Question: For Nc1cnc(-c2ccc(C3CCC3)c(OCCO)c2F)cn1 [Example 250, 2-(3-(5-Aminopyrazin-2-yl)-6-cyclobutyl-2-fluorophenoxy)ethanol], which IC50 [1] is on record?
Answer: Its IC50 is 357 nM.

Question: What about the Ki [2] of the same molecule?
Answer: The Ki was 99.2 nM.

Question: Which IC50 [1] does the source give for Nc1cnc(-c2ccc(C3CCC3)c(OCC3CCCO3)c2F)cn1 (stereo not shown) [Example 252, 5-(4-Cyclobutyl-2-fluoro-3-((tetrahydrofuran-2-yl)methoxy)phenyl)pyrazin-2-amine] here?
Answer: Its IC50 is over 1000 nM.

Question: What about the Ki [2] of the same molecule?
Answer: The Ki was 29.6 nM.

Question: What does the source list for Nc1cnc(-c2ccc(C3CCC3)c(Oc3ccnnc3)c2F)cn1 [Example 257, 5-(4-Cyclobutyl-2-fluoro-3-(pyridazin-4-yloxy)phenyl)pyrazin-2-amine]?
Answer: IC50 [1]: 332 nM; Ki [2]: 31.1 nM

Question: Which IC50 [1] does the source give for Nc1cnc(-c2ccc(C3CCC3)c(Oc3nccnc3N)c2F)cn1 [Example 258, 3-(3-(5-Aminopyrazin-2-yl)-6-cyclobutyl-2-fluorophenoxy)pyrazin-2-amine] here?
Answer: Its IC50 is 10.1 nM.

Question: And the Ki [2]?
Answer: Its Ki is 3.8 nM.

Question: Nc1cnc(-c2ccc(C3CCC3)c(Oc3cnccn3)c2F)cn1 [Example 259, 5-(4-Cyclobutyl-2-fluoro-3-(pyrazin-2-yloxy)phenyl)pyrazin-2-amine] was tested. Which IC50 [1] did it give?
Answer: The IC50 was 134 nM.

Question: What about the Ki [2] of the same molecule?
Answer: Its Ki is 7 nM.

Question: Which results are given for Nc1cnc(-c2ccc(C3CCC3)c(Oc3ccncn3)c2F)cn1 [Example 260, 5-(4-Cyclobutyl-2-fluoro-3-(pyrimidin-4-yloxy)phenyl)pyrazin-2-amine]?
Answer: IC50 [1]: 197 nM; Ki [2]: 19.9 nM

Question: Which IC50 [1] does the source give for CC(C)CNc1nccc(Oc2c(C3CCC3)ccc(-c3cnc(N)cn3)c2F)n1 [Example 261, 4-(3-(5-Aminopyrazin-2-yl)-6-cyclobutyl-2-fluorophenoxy)-N-isobutylpyrimidin-2-amine trifluoroacetic acid salt] here?
Answer: Its IC50 is 40.1 nM.

Question: And the Ki [2]?
Answer: The Ki was 1.3 nM.

Question: Which IC50 [1] does the source give for COC(=O)c1ccc2oc(COc3c(C4CCC4)ccc(-c4cnc(N)cn4)c3F)nc2c1 [Example 262, Methyl 2-{[3-(5-aminopyrazin-2-yl)-6-cyclobutyl-2-fluorophenoxy]methyl}-1,3-benzoxazole-5-carboxylate] here?
Answer: Its IC50 is 160 nM.

Question: What about the Ki [2] of the same molecule?
Answer: The Ki was 19.6 nM.

Question: How did the IC50 [1] turn out when COC(=O)c1ccc(O)c(NC(=O)COc2c(C3CCC3)ccc(-c3cnc(N)cn3)c2F)c1 [Example 263, Methyl 3-({[3-(5-aminopyrazin-2-yl)-6-cyclobutyl-2-fluorophenoxy]acetyl}amino)-4-hydroxybenzoate] was run?
Answer: Its IC50 is 1960 nM.

Question: And the Ki [2]?
Answer: Its Ki is 138 nM.

Question: Which IC50 [1] does the source give for CNc1nc(C)cc(Oc2c(C3CCC3)ccc(-c3cnc(N)cn3)c2F)n1 [Example 269, 4-[3-(5-Aminopyrazin-2-yl)-6-cyclobutyl-2-fluorophenoxy]-N,6-dimethylpyrimidin-2-amine] here?
Answer: The IC50 was 15.1 nM.

Question: And the Ki [2]?
Answer: The Ki was 0.9 nM.

Question: Which IC50 [1] does the source give for Nc1cnc(-c2ccc(C3CCC3)c(Oc3nc(N)c4ccccc4n3)c2F)cn1 [Example 272, 2-[3-(5-Aminopyrazin-2-yl)-6-cyclobutyl-2-fluorophenoxy]quinazolin-4-amine] here?
Answer: Its IC50 is 41.9 nM.

Question: What about the Ki [2] of the same molecule?
Answer: Its Ki is 0.5 nM.

Question: For N#CCOc1c(C2CCC2)ccc(-c2cnc(N)cn2)c1F [Example 276, [3-(5-Aminopyrazin-2-yl)-6-cyclobutyl-2-fluorophenoxy]acetonitrile], which IC50 [1] is on record?
Answer: The IC50 was 406 nM.

Question: What about the Ki [2] of the same molecule?
Answer: Its Ki is 39.2 nM.

Question: For Nc1cnc(-c2ccc(C3CCC3)c(Oc3cccnn3)c2F)cn1 [Example 277, 5-[4-Cyclobutyl-2-fluoro-3-(pyridazin-3-yloxy)phenyl]pyrazin-2-amine], which IC50 [1] is on record?
Answer: Its IC50 is 135 nM.

Question: What about the Ki [2] of the same molecule?
Answer: The Ki was 17.7 nM.

Question: Which IC50 [1] does the source give for Nc1cnc(-c2ccc(C3CC3)c(Oc3ncccn3)c2F)cn1 [Example 278, 5-[4-Cyclopropyl-2-fluoro-3-(pyrimidin-2-yloxy)phenyl]pyrazin-2-amine] here?
Answer: Its IC50 is 216 nM.

Question: What about the Ki [2] of the same molecule?
Answer: The Ki was 100 nM.

Question: With Nc1cnc(-c2ccc(C3CC3)c(Oc3nccc(N)n3)c2F)cn1 [Example 279, 2-[3-(5-Aminopyrazin-2-yl)-6-cyclopropyl-2-fluorophenoxy]pyrimidin-4-amine] as the molecule, how does the IC50 [1] read?
Answer: The IC50 was 147 nM.

Question: What about the Ki [2] of the same molecule?
Answer: The Ki was 67.5 nM.

Question: With COC(=O)c1coc(COc2c(C3CCC3)ccc(-c3cnc(N)cn3)c2F)n1 [Example 281, Methyl 2-{[3-(5-aminopyrazin-2-yl)-6-cyclobutyl-2-fluorophenoxy]methyl}-1,3-oxazole-4-carboxylate trifluoroacetic acid salt] as the molecule, how does the IC50 [1] read?
Answer: Its IC50 is 370 nM.

Question: What about the Ki [2] of the same molecule?
Answer: The Ki was 101 nM.

Question: What does the source list for Nc1cnc(-c2ccc(C3CCC3)c(OCc3nc(C(=O)O)co3)c2F)cn1 [Example 282, 2-{[3-(5-Aminopyrazin-2-yl)-6-cyclobutyl-2-fluorophenoxy]methyl}-1,3-oxazole-4-carboxylic acid trifluoroacetic acid salt]?
Answer: IC50 [1]: > 10000 nM; Ki [2]: 29.4 nM

Question: Which results are given for Nc1cnc(-c2ccc(C3CCC3)c(OCc3ccc(Cl)cn3)c2F)cn1 [Example 289, 5-{3-[(5-Chloropyridin-2-yl)methoxy]-4-cyclobutyl-2-fluorophenyl}pyrazin-2-amine trifluoroacetic acid salt]?
Answer: IC50 [1]: 782 nM; Ki [2]: 229 nM

Question: Which IC50 [1] does the source give for N#Cc1ccc(COc2c(C3CCC3)ccc(-c3cnc(N)cn3)c2F)cn1 [Example 290, 5-{[3-(5-Aminopyrazin-2-yl)-6-cyclobutyl-2-fluorophenoxy]methyl}pyridine-2-carbonitrile trifluoroacetic acid salt] here?
Answer: The IC50 was 506 nM.

Question: What about the Ki [2] of the same molecule?
Answer: The Ki was 39.9 nM.

Question: With Cc1cc(COc2c(C3CCC3)ccc(-c3cnc(N)cn3)c2F)no1 [Example 291, 5-{4-Cyclobutyl-2-fluoro-3-[(5-methylisoxazol-3-yl)methoxy]phenyl}pyrazin-2-amine trifluoroacetic acid salt] as the molecule, how does the IC50 [1] read?
Answer: The IC50 was 576 nM.

Question: And the Ki [2]?
Answer: The Ki was 46.6 nM.

Question: For N#Cc1cccc(COc2c(C3CCC3)ccc(-c3cnc(N)cn3)c2F)n1 [Example 292, 6-{[3-(5-Aminopyrazin-2-yl)-6-cyclobutyl-2-fluorophenoxy]methyl}pyridine-2-carbonitrile trifluoroacetic acid salt], which IC50 [1] is on record?
Answer: The IC50 was 412 nM.

Question: What about the Ki [2] of the same molecule?
Answer: Its Ki is 37.2 nM.

Question: For Nc1cnc(-c2ccc(C3CCC3)c(OCCN3C(=O)c4ccccc4C3=O)c2F)cn1 [Example 293, 2-{2-[3-(5-aminopyrazin-2-yl)-6-cyclobutyl-2-fluorophenoxy]ethyl}-1H-isoindole-1,3(2H)-dione], which IC50 [1] is on record?
Answer: The IC50 was 1000 nM.

Question: What about the Ki [2] of the same molecule?
Answer: The Ki was 16.5 nM.
